# Reference: patent publication US20250026880A1, “POLY(DIALLYLDIMETHYLAMMONIUM) FLUORIDE - A NEW ANTI-CARIES AND REMINERALIZING AGENT” (The University of Hong Kong, priority 2023, published 2025)
# Assay: Remineralizing properties on EDTA-etched dentin blocks soaked in simulated body fluid (SEM/EDX)
# Details: 15 μL applied on dentin etched by 10% EDTA; soaked in simulated body fluid for 7 d; PDDAF 280,000 ppm, SDF 38%
# Description: The volume of both solutions applied on dentin surface is 15 μL.
# The remineralizing properties of 280,000 ppm cationic polymer fluoride solution was examined. […] Dentin blocks with the dimensions of 4 mm×4 mm×2 mm were prepared (FIGS. 8C-8D, 9C-9D).
substance,measurement,value
silver diamine fluoride [38% SDF],minerals formed on re-mineralized dentin surface (EDX),formation of mineral calcium phosphate and silver chloride
